pIC50: −log10 of the molar value.
How the values were obtained:
MERS-CoV 3CLpro = MERS-CoV 3CLpro (Middle East respiratory syndrome-related coronavirus, UniProt K9N7C7); assay: biochemical
SARS-CoV 3CLpro = SARS-CoV 3CLpro (Severe acute respiratory syndrome coronavirus, UniProt P0C6X7); assay: biochemical
HCoV-229E 3CLpro = HCoV-229E 3CLpro (Human coronavirus 229E, UniProt P0C6X1); assay: HCoV-229E 3CLpro inhibition assay (FRET); assay type: biochemical
SARS-CoV-2 3CLpro = SARS-CoV-2 3CLpro (Severe acute respiratory syndrome coronavirus 2, UniProt P0DTD1); assay: biochemical

MERS-CoV 3CLpro, sequence (K9N7C7 3248-3553): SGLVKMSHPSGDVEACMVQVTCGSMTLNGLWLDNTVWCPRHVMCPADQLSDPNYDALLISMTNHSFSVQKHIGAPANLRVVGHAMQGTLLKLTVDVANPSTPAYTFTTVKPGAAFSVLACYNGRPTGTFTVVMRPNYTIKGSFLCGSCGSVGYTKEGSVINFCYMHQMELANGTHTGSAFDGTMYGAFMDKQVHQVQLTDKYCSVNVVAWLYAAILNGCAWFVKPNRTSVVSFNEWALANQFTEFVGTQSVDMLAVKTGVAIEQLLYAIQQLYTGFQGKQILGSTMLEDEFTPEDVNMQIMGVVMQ
HCoV-229E 3CLpro, sequence (P0C6X1 2966-3267): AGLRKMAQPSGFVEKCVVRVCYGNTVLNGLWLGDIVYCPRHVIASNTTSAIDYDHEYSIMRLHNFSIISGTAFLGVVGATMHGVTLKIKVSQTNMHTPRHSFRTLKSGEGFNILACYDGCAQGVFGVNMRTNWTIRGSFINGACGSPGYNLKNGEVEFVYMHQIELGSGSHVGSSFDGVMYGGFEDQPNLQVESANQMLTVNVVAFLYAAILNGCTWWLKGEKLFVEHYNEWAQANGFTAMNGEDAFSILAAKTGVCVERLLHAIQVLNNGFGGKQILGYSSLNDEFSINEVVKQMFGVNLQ

SMILES | pIC50 (MERS-CoV 3CLpro) | pIC50 (SARS-CoV 3CLpro) | pIC50 (HCoV-229E 3CLpro) | pIC50 (SARS-CoV-2 3CLpro)
CCC(C)(C)[C@H](NC(=O)C1CC1)C(=O)N1CC(C)(C)C[C@H]1C(=O)NN(C[C@H]1CCCNC1=O)C(=O)[C@H](F)Cl [Example 168b, N-[(1S)-1-[(2S)-2-[[[(2R)-2-chloro-2-fluoro-acetyl]-[[(3R)-2-oxo-3-piperidyl]methyl]amino]carbamoyl]-4,4-dimethyl-pyrrolidine-1-carbonyl]-2,2-dimethyl-butyl]cyclopropanecarboxamide] | 5.68 | 6.73 | 6.66 | 7.00
CCC(C)(C)[C@H](NC(=O)C1CC1)C(=O)N1C[C@H]2[C@@H]([C@H]1C(=O)NN(C[C@@H]1CCCNC1=O)C(=O)[C@H](F)Cl)C2(C)C [Example 169a, N-[(1S)-1-[(1R,2S,5S)-2-[[[(2R)-2-chloro-2-fluoro-acetyl]-[[(3S)-2-oxo-3-piperidyl]methyl]amino]carbamoyl]-6,6-dimethyl-3-azabicyclo[3.1.0]hexane-3-carbonyl]-2,2-dimethyl-butyl]cyclopropanecarboxamide] | 6.93 | 7.70 | 7.25 | 8.05
CC[C@H](C)[C@H](NC(=O)C1(F)CC1)C(=O)N1C[C@@H]2CCC[C@@H]2[C@H]1C(=O)NN(C[C@@H]1CCCNC1=O)C(=O)[C@H](F)Cl [Example 170a, N-[(1S,2S)-1-[(3S,3aS,6aR)-3-[[[(2R)-2-chloro-2-fluoro-acetyl]-[[(3S)-2-oxo-3-piperidyl]methyl]amino]carbamoyl]-3,3a,4,5,6,6a-hexahydro-1H-cyclopenta[c]pyrrole-2-carbonyl]-2-methyl-butyl]-1-fluoro-cyclopropanecarboxamide] | 6.56 | 7.60 | 6.97 | 7.80
CCC(CC)[C@H](NC(=O)C1CC1)C(=O)N1C[C@@H]2CCC[C@@H]2[C@H]1C(=O)NN(C[C@@H]1CCCNC1=O)C(=O)[C@H](F)Cl [Example 171a, N-[(1S)-1-[(3S,3aS,6aR)-3-[[[(2R)-2-chloro-2-fluoro-acetyl]-[[(3S)-2-oxo-3-piperidyl]methyl]amino]carbamoyl]-3,3a,4,5,6,6a-hexahydro-1H-cyclopenta[c]pyrrole-2-carbonyl]-2-ethyl-butyl]cyclopropanecarboxamide] | 6.89 | 7.77 | 7.03 | 8.10
CCC(CC)[C@H](NC(=O)C1CC1)C(=O)N1C[C@H]2[C@@H]([C@H]1C(=O)NN(C[C@@H]1CCCNC1=O)C(=O)[C@H](F)Cl)C2(C)C [Example 172, N-[(1S)-1-[(1R,2S,5S)-2-[[[(2R)-2-chloro-2-fluoro-acetyl]-[[(3S)-2-oxo-3-piperidyl]methyl]amino]carbamoyl]-6,6-dimethyl-3-azabicyclo[3.1.0]hexane-3-carbonyl]-2-ethyl-butyl]cyclopropanecarboxamide] | 6.73 | 7.59 | 7.15 | 7.77
CCC(CC)[C@H](NC(=O)C(F)F)C(=O)N1C[C@H]2[C@@H]([C@H]1C(=O)NN(C[C@@H]1CCCNC1=O)C(=O)[C@H](F)Cl)C2(C)C [Example 173, N-[(1S)-1-[(1R,2S,5S)-2-[[[(2R)-2-chloro-2-fluoro-acetyl]-[[(3S)-2-oxo-3-piperidyl]methyl]amino]carbamoyl]-6,6-dimethyl-3-azabicyclo[3.1.0]hexane-3-carbonyl]-2-ethyl-butyl]-2,2-difluoro-acetamide] | 6.76 | 7.74 | 7.57 | 7.89
CCC(CC)[C@H](NC(=O)C(F)F)C(=O)N1C[C@@H]2CCC[C@@H]2[C@H]1C(=O)NN(C[C@@H]1CCCNC1=O)C(=O)[C@H](F)Cl [Example 174, N-[(1S)-1-[(3S,3aS,6aR)-3-[[[(2R)-2-chloro-2-fluoro-acetyl]-[[(3S)-2-oxo-3-piperidyl]methyl]amino]carbamoyl]-3,3a,4,5,6,6a-hexahydro-1H-cyclopenta[c]pyrrole-2-carbonyl]-2-ethyl-butyl]-2,2-difluoro-acetamide] | 6.91 | 7.92 | 7.54 | 8.00
CCC(C)(C)[C@H](NC(=O)C(F)F)C(=O)N1C[C@@H]2CCC[C@@H]2[C@H]1C(=O)NN(C[C@@H]1CCCNC1=O)C(=O)[C@H](F)Cl [Example 175, N-[(1S)-1-[(3S,3aS,6aR)-3-[[[(2R)-2-chloro-2-fluoro-acetyl]-[[(3S)-2-oxo-3-piperidyl]methyl]amino]carbamoyl]-3,3a,4,5,6,6a-hexahydro-1H-cyclopenta[c]pyrrole-2-carbonyl]-2,2-dimethyl-butyl]-2,2-difluoro-acetamide] | 6.98 | 7.82 | 7.43 | 8.00
CC[C@H](C)[C@H](NC(=O)C(F)F)C(=O)N1C[C@H]2[C@@H]([C@H]1C(=O)NN(C[C@@H]1CCCNC1=O)C(=O)[C@H](F)Cl)C2(C)C [Example 176, N-[(1S,2S)-1-[(1R,2S,5S)-2-[[[(2R)-2-chloro-2-fluoro-acetyl]-[[(3S)-2-oxo-3-piperidyl]methyl]amino]carbamoyl]-6,6-dimethyl-3-azabicyclo[3.1.0]hexane-3-carbonyl]-2-methyl-butyl]-2,2-difluoro-acetamide] | 7.02 | 7.80 | 7.55 | 7.96
CC1(C)[C@@H]2[C@@H](C(=O)NN(C[C@@H]3CCNC3=O)C(=O)[C@H](F)Cl)N(C(=O)c3cc(C(F)(F)F)cc(C(F)(F)F)c3)C[C@@H]21 [Example 177, (1R,2S,5S)-3-[3,5-bis(trifluoromethyl)benzoyl]-N′-[(2R)-2-chloro-2-fluoro-acetyl]-6,6-dimethyl-N′—[[(3S)-2-oxopyrrolidin-3-yl]methyl]-3-azabicyclo[3.1.0]hexane-2-carbohydrazide] | 6.56 | 6.63 | 6.86 | 6.83
CC1(C)[C@@H]2[C@@H](C(=O)NN(C[C@@H]3CCNC3=O)C(=O)[C@H](F)Cl)N(C(=O)Cc3cc(C(F)(F)F)cc(C(F)(F)F)c3)C[C@@H]21 [Example 178, (1R,2S,5S)-3-[2-[3,5-bis(trifluoromethyl)phenyl]acetyl]-N′-[(2R)-2-chloro-2-fluoro-acetyl]-6,6-dimethyl-N′—[[(3S)-2-oxopyrrolidin-3-yl]methyl]-3-azabicyclo[3.1.0]hexane-2-carbohydrazide] | 6.58 | 6.59 | 7.19 | 6.83
CC1(C)[C@@H]2[C@@H](C(=O)NN(C[C@@H]3CCNC3=O)C(=O)[C@H](F)Cl)N(C(=O)c3cc(F)cc(C(F)(F)F)c3)C[C@@H]21 [Example 179, (1R,2S,5S)—N′-[(2R)-2-chloro-2-fluoro-acetyl]-3-[3-fluoro-5-(trifluoromethyl)benzoyl]-6,6-dimethyl-N′—[[(3S)-2-oxopyrrolidin-3-yl]methyl]-3-azabicyclo[3.1.0]hexane-2-carbohydrazide] | 6.50 | 6.65 | 7.03 | 6.70
CC1(C)[C@@H]2[C@@H](C(=O)NN(C[C@@H]3CCNC3=O)C(=O)[C@H](F)Cl)N(C(=O)/C=C/c3cc(C(F)(F)F)cc(C(F)(F)F)c3)C[C@@H]21 [Example 180, (1R,2S,5S)-3-[(E)-3-[3,5-bis(trifluoromethyl)phenyl]prop-2-enoyl]-N′-[(2R)-2-chloro-2-fluoro-acetyl]-6,6-dimethyl-N′—[[(3S)-2-oxopyrrolidin-3-yl]methyl]-3-azabicyclo[3.1.0]hexane-2-carbohydrazide] | 6.18 | 6.10 | 6.62 | 6.31
CC1(C)[C@@H]2[C@@H](C(=O)NN(C[C@@H]3CCNC3=O)C(=O)[C@H](F)Cl)N(C(=O)/C=C/c3cc(F)cc(F)c3)C[C@@H]21 [Example 181, (1R,2S,5S)—N′-[(2R)-2-chloro-2-fluoro-acetyl]-3-[(E)-3-(3,5-difluorophenyl)prop-2-enoyl]-6,6-dimethyl-N′—[[(3S)-2-oxopyrrolidin-3-yl]methyl]-3-azabicyclo[3.1.0]hexane-2-carbohydrazide] | 6.44 | 6.60 | 7.32 | 6.68
CC(C)(C)[C@H](Nc1cc(F)ncn1)C(=O)N1C[C@@H]2CCC[C@@H]2[C@H]1C(=O)NN(C[C@@H]1CCNC1=O)C(=O)[C@H](F)Cl [Example 182] | 7.05 | 7.92 | 7.43 | 7.96
CC(C)(C)[C@H](Nc1ncncc1F)C(=O)N1C[C@@H]2CCC[C@@H]2[C@H]1C(=O)NN(C[C@@H]1CCNC1=O)C(=O)[C@H](F)Cl [Example 183] | 6.76 | 7.80 | 7.23 | 7.96
CC(C)(C)[C@H](Nc1ccccn1)C(=O)N1C[C@@H]2CCC[C@@H]2[C@H]1C(=O)NN(C[C@@H]1CCNC1=O)C(=O)[C@H](F)Cl [Example 184] | 6.56 | 7.39 | 7.07 | 7.80
CC[C@H](C)[C@H](NC(=O)[C@H](F)Cl)C(=O)N1C[C@H]2[C@@H]([C@H]1C(=O)NN(C[C@@H]1CCNC1=O)C(=O)[C@H](F)Cl)C2(C)C [Example 185, (2R)-2-chloro-N-[(1S,2S)-1-[(1R,2S,5S)-2-[[[(2R)-2-chloro-2-fluoro-acetyl]-[[(3S)-2-oxopyrrolidin-3-yl]methyl]amino]carbamoyl]-6,6-dimethyl-3-azabicyclo[3.1.0]hexane-3-carbonyl]-2-methyl-butyl]-2-fluoro-acetamide] | 7.00 | 7.68 | 7.40 | 7.96
